Patent US8993585B2, “Cyclic amine substituted pyrimidinediamines as PKC inhibitors” (Rigel Pharmaceuticals, Inc., priority 2007, dated 2015)

Tested on: Human primary T cells
Experiment: IL-2 ELISA, Human Primary T Cell, Anti-CD3+CD28+ (Example 3)
Type: cell-based
Details: anti-CD3+CD28 stimulation
Summary of the method: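 IL-2 was read by ELISA after stimulation on wells pre-coated with 1 ug/ml αCD3 and 5 μg/ml αCD28. Before this, 100,000 human primary T cells per well spent 1 h at 37 °C with test compound in Yssel's medium. The counter-screen replaced antibody stimulation with PMA (0.5 ng/ml final) and ionomycin (0.1 uM final).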

Cc1ccc(Nc2ncc(F)c(N(Cc3ccc(-c4ccccc4C#N)cc3)C3CC(C)(C)N(C)C(C)(C)C3)n2)cc1C#N [Compound I-326]
IC50 (Homo sapiens, T-cell, 24 h): 3080 nM

CN1CCN(c2ccc(Nc3ncc([N+](=O)[O-])c(NC4CC(C)(C)N(C)C(C)(C)C4)n3)cc2Cl)CC1 [Compound I-76]
IC50 (24 hours): 596 nM

CN1C(C)(C)CC(Nc2nc(Nc3ccc4c(n3)NCCO4)ncc2F)CC1(C)C [II-24]
IC50 (Homo sapiens, T-cell, 24 h): 11300 nM

COc1ccc(Nc2ncc(F)c(NC3CC(C)(C)N(C)C(C)(C)C3)n2)cc1-c1cc2ccccc2s1 [Compound I-195]
IC50 (24 hours): 1120 nM

Cc1ccc(C)n1-c1cc(Nc2ncc(F)c(NC3CC(C)(C)N(C)C(C)(C)C3)n2)ccc1OCCN1CCOCC1 [Compound I-439]
IC50 (Homo sapiens, T-cell, 24 h): 620 nM

CN1C(C)(C)CC(Nc2nc(Nc3nc(-c4ccc(N5CCCC5)cc4)cs3)ncc2F)CC1(C)C [II-133]
IC50 (Homo sapiens, T-cell, 24 h): 2220 nM

CN1C(C)(C)CC(Nc2nc(Nc3nc4ccc(S(C)(=O)=O)cc4s3)ncc2F)CC1(C)C [II-144]
IC50 (Homo sapiens, T-cell, 24 h): 1080 nM

CN1C(C)(C)CC(Nc2nc(Nc3ccc(N4CCN(S(C)(=O)=O)CC4)c(C(F)(F)F)c3)ncc2F)C1(C)C (stereo not drawn) [Compound I-286]
IC50 (24 hours): 2420 nM

CN1C(C)(C)CC(Nc2nc(Nc3cc(Cl)cc(Cl)c3)ncc2F)C1(C)C (stereo not drawn) [Compound I-279, 5-Fluoro-N2-(3,5-dichloro) phenyl-N4-(1,2,2,5,5-pentamethylpyrrolidin-3-yl)-2,4-pyrimidinediamine]
IC50 (24 hours): 7440 nM

CN1C(C)(C)CC(Nc2nc(Nc3ccc4c(c3)OCc3nccn3-4)ncc2F)CC1(C)C [II-11]
IC50 (Homo sapiens, T-cell, 24 h): 1320 nM

COc1ccc(Nc2ncc(F)c(N(Cc3ccc4ccccc4c3)C3CC(C)(C)N(C)C(C)(C)C3)n2)cc1OC(F)F [Compound I-316]
IC50 (Homo sapiens, T-cell, 24 h): 3440 nM

CC1(C)CC(Nc2nc(Nc3ccc(OCCN4CCOCC4)c(Cl)c3)ncc2C#N)CC(C)(C)N1 [Compound I-445]
IC50 (24 hours): 910 nM

CN1C(=O)c2ccc(Nc3ncc(F)c(NC4CC(C)(C)N(C)C(C)(C)C4)n3)cc2C1=O [II-149]
IC50 (Homo sapiens, T-cell, 24 h): 990 nM

COc1ccc(Nc2ncc(F)c(NC3CC(C)(C)N(CCC(=O)O)C(C)(C)C3)n2)cc1Cl [Compound I-303]
IC50 (Homo sapiens, T-cell, 24 h): 17700 nM

CN1C(C)(C)CC(Nc2nc(Nc3ccc(N4CCOCC4)c(C(F)(F)F)c3)ncc2F)C1(C)C (stereo not drawn) [Compound I-287, 5-Fluoro-N2-[4-morpholino-3-(trifluoromethyl)]phenyl-N4-(1,2,2,5,5-pentamethylpyrrolidin-3-yl)-2,4-pyrimidinediamine]
IC50 (24 hours): 2190 nM

COc1cc(Nc2ncc(F)c(NC3CC(C)(C)N(C)C(C)(C)C3)n2)ccc1-n1cccc1 [Compound I-349]
IC50 (24 hours): 1040 nM

C#Cc1cnc(Nc2cc(OC)cc(OC)c2)nc1NC1CC(C)(C)N(C)C(C)(C)C1 [Compound I-433]
IC50 (Homo sapiens, T-cell, 24 h): 2350 nM

CN1C(C)(C)CC(Nc2nc(Nc3cccc(C#N)c3)ncc2C(N)=O)CC1(C)C [Compound I-86]
IC50 (24 hours): 4990 nM

Cc1nnnn1-c1cccc(Nc2ncc(F)c(NC3CC(C)(C)NC(C)(C)C3)n2)c1 [Compound I-414]
IC50 (24 hours): 160 nM

CN1C(C)(C)CC(Nc2nc(Nc3ccc(C(=O)NCCc4ccccn4)c(Cl)c3)ncc2F)CC1(C)C [Compound I-362]
IC50 (24 hours): 667 nM

CN1C(C)(C)CC(Nc2nc(Nc3ccc4c(c3)C(=O)NC4=O)ncc2F)CC1(C)C [II-148]
IC50 (Homo sapiens, T-cell, 24 h): 990 nM

CN1C(C)(C)CC(Nc2nc(Nc3cccc(C(N)=O)c3)ncc2F)CC1(C)C [Compound I-24]
IC50 (24 hours): 1520 nM

COc1ccc(Nc2ncc([N+](=O)[O-])c(NC3CC(C)(C)N(C)C(C)(C)C3)n2)cc1Cl [Compound I-71]
IC50 (24 hours): 632 nM

CN1C(C)(C)CC(Nc2nc(Nc3nnc(C(F)(F)F)s3)ncc2F)CC1(C)C [II-13]
IC50 (Homo sapiens, T-cell, 24 h): 11200 nM

CN1C(C)(C)CC(Nc2nc(N[C@@H]3CCc4ccccc43)ncc2F)CC1(C)C [II-84]
IC50 (Homo sapiens, T-cell, 24 h): 17500 nM

COc1ccc(Nc2nccc(NC3CC(C)(C)N(C)C(C)(C)C3)n2)cc1Cl [Compound I-226]
IC50 (24 hours): 1140 nM

COC(=O)/C=C/N1C(C)(C)CC(Nc2nc(Nc3ccc(OC)c(C(F)(F)F)c3)ncc2F)CC1(C)C [Compound I-301]
IC50 (24 hours): 951 nM

CN1CCN(C(=O)C2COc3cc(Nc4ncc(F)c(NC5CC(C)(C)N(C)C(C)(C)C5)n4)ccc3O2)CC1 (stereo not drawn) [II-158]
IC50 (Homo sapiens, T-cell, 24 h): 7200 nM

CN1C(C)(C)CC(Nc2nc(Nc3ccc(-c4cnn(C)c4)c(F)c3)ncc2F)CC1(C)C [Compound I-150]
IC50 (24 hours): 701 nM

CN1C(C)(C)CC(Nc2nc(Nc3nc(C#N)c(C#N)[nH]3)ncc2F)CC1(C)C [II-22]
IC50 (Homo sapiens, T-cell, 24 h): 37300 nM

CN1C(C)(C)CC(Nc2nc(Nc3ccc(Oc4ncccn4)c(Cl)c3)ncc2F)CC1(C)C [Compound I-338]
IC50 (24 hours): 360 nM

CN1C(C)(C)CC(Nc2nc(Nc3cccc(-c4ccncc4)c3)ncc2F)CC1(C)C [Compound I-79]
IC50 (24 hours): 552 nM

COC(=O)CCN1C(C)(C)CC(Nc2nc(Nc3ccc(OC)c(OC)c3)ncc2F)CC1(C)C [Compound I-291]
IC50 (Homo sapiens, T-cell, 24 h): 22300 nM
